Results: publication PMC11352961, “Peptide dendrimers transfecting CRISPR/Cas9 plasmid DNA: optimization and mechanism” (RSC Chemical Biology, 2024)
Bridge positions count the residues as written; N and C are the ends. Square brackets hold non-standard residues; d marks the D form. Side chains are listed from the residue outwards. Peptide text beside a SMILES is read from it. I, II: the chains in the order shown. * marks the point of attachment. Stearoyl = CCCCCCCCCCCCCCCCCC(=O)*; Palmitoyl = CCCCCCCCCCCCCCCC(=O)*

Experiments:
[1] = tested on: HEK293 cells; assay: Cell viability by PrestoBlue assay after transfection, HEK cells; assay type: cell-based; conditions: 4 h
[2] = cited from earlier work
[3] = tested on: HeLa cells; assay: Cell viability by PrestoBlue assay after transfection, HeLa cells; assay type: cell-based; conditions: 4 h
[4] = tested on: HEK293 cells; assay type: cell-based; conditions: 1 h
[5] = in vitro; conditions: isolated enzyme proteinase k, pH 8

Compound	% viability HEK cells [1]	pKa of dendrimer N-termini [2]	% viability HeLa cells [3]	transfection of HEK cells with protease inhibition [4]	remaining at 1 h, 200 µM [5]	remaining at 2 h, 200 µM [5]	remaining at 3 h, 200 µM [5]	remaining at 12 h, 200 µM [5]	remaining at 24 h, 200 µM [5]
CCCCCCCCCCCCCCCC(=O)NCCCC[C@@H](NC(=O)[C@@H](CCCCNC(=O)CCCCCCCCCCCCCCC)NC(=O)[C@@H](CCCCNC(=O)[C@@H](CC(C)C)NC(=O)[C@@H](CC(C)C)NC(=O)[C@@H](CCCCNC(=O)[C@@H](CC(C)C)NC(=O)[C@@H](CCCCN)NC(=O)[C@@H](CCCCNC(=O)[C@@H](CC(C)C)NC(=O)[C@H](N)CCCCN)NC(=O)[C@@H](CC(C)C)NC(=O)[C@H](N)CCCCN)NC(=O)[C@@H](CC(C)C)NC(=O)[C@@H](CCCCN)NC(=O)[C@@H](CCCCNC(=O)[C@@H](CC(C)C)NC(=O)[C@H](N)CCCCN)NC(=O)[C@@H](CC(C)C)NC(=O)[C@H](N)CCCCN)NC(=O)[C@@H](CC(C)C)NC(=O)[C@@H](CC(C)C)NC(=O)[C@@H](CCCCNC(=O)[C@@H](CC(C)C)NC(=O)[C@@H](CCCCN)NC(=O)[C@@H](CCCCNC(=O)[C@@H](CC(C)C)NC(=O)[C@H](N)CCCCN)NC(=O)[C@@H](CC(C)C)NC(=O)[C@H](N)CCCCN)NC(=O)[C@@H](CC(C)C)NC(=O)[C@@H](CCCCN)NC(=O)[C@@H](CCCCNC(=O)[C@@H](CC(C)C)NC(=O)[C@H](N)CCCCN)NC(=O)[C@@H](CC(C)C)NC(=O)[C@H](N)CCCCN)C(N)=O [DMH13, reference compound] (I: H-[dK][dL][dK]([dL-dK])[dK][dL][dK][dL][dL][dK][dK](Palmitoyl)[dK](Palmitoyl)-NH2 / II: H-[dK][dL][dK]([dL-dK])[dK][dL][dK][dL][dL] / III: H-[dK][dL][dK]([dL-dK])[dK][dL] / IV: H-[dK][dL][dK]([dL-dK])[dK][dL]; amide I:6-IV:C, I:9-II:C, II:6-III:C)	96 ± 6%	~6.5	–	–	–	–	–	–	–
CCCCCCCCCCCCCCCCCC(=O)NCCCC[C@H](NC(=O)[C@H](CCCCNC(=O)[C@H](CC(C)C)NC(=O)[C@H](CCCCN)NC(=O)[C@H](CCCCNC(=O)[C@H](CC(C)C)NC(=O)[C@H](CCCCN)NC(=O)[C@H](CCCCNC(=O)[C@H](CC(C)C)NC(=O)[C@@H](N)CCCCN)NC(=O)[C@H](CC(C)C)NC(=O)[C@@H](N)CCCCN)NC(=O)[C@H](CC(C)C)NC(=O)[C@H](CCCCN)NC(=O)[C@H](CCCCNC(=O)[C@H](CC(C)C)NC(=O)[C@@H](N)CCCCN)NC(=O)[C@H](CC(C)C)NC(=O)[C@@H](N)CCCCN)NC(=O)[C@H](CC(C)C)NC(=O)[C@H](CCCCN)NC(=O)[C@H](CCCCNC(=O)[C@H](CC(C)C)NC(=O)[C@H](CCCCN)NC(=O)[C@H](CCCCNC(=O)[C@H](CC(C)C)NC(=O)[C@@H](N)CCCCN)NC(=O)[C@H](CC(C)C)NC(=O)[C@@H](N)CCCCN)NC(=O)[C@H](CC(C)C)NC(=O)[C@H](CCCCN)NC(=O)[C@H](CCCCNC(=O)[C@H](CC(C)C)NC(=O)[C@@H](N)CCCCN)NC(=O)[C@H](CC(C)C)NC(=O)[C@@H](N)CCCCN)C(N)=O [Z1] (I: H-KLK([Leu-Lys])KLKKLKK(Stearoyl)-NH2 / II: H-KLK([Leu-Lys])KLKKL / III: H-KLK([Leu-Lys])KL / IV: H-KLK([Leu-Lys])KL; amide I:6-IV:C, I:9-II:C, II:6-III:C)	64 ± 7%	–	51 ± 6%	42%	–	–	–	–	–
CCCCCCCCCCCCCCCCCC(=O)NCCCC[C@H](NC(=O)[C@H](CCCCNC(=O)[C@H](CC(C)C)NC(=O)[C@H](CCCNC(=N)N)NC(=O)[C@H](CCCCNC(=O)[C@H](CC(C)C)NC(=O)[C@H](CCCNC(=N)N)NC(=O)[C@H](CCCCNC(=O)[C@H](CC(C)C)NC(=O)[C@@H](N)CCCNC(=N)N)NC(=O)[C@H](CC(C)C)NC(=O)[C@@H](N)CCCNC(=N)N)NC(=O)[C@H](CC(C)C)NC(=O)[C@H](CCCNC(=N)N)NC(=O)[C@H](CCCCNC(=O)[C@H](CC(C)C)NC(=O)[C@@H](N)CCCNC(=N)N)NC(=O)[C@H](CC(C)C)NC(=O)[C@@H](N)CCCNC(=N)N)NC(=O)[C@H](CC(C)C)NC(=O)[C@H](CCCNC(=N)N)NC(=O)[C@H](CCCCNC(=O)[C@H](CC(C)C)NC(=O)[C@H](CCCNC(=N)N)NC(=O)[C@H](CCCCNC(=O)[C@H](CC(C)C)NC(=O)[C@@H](N)CCCNC(=N)N)NC(=O)[C@H](CC(C)C)NC(=O)[C@@H](N)CCCNC(=N)N)NC(=O)[C@H](CC(C)C)NC(=O)[C@H](CCCNC(=N)N)NC(=O)[C@H](CCCCNC(=O)[C@H](CC(C)C)NC(=O)[C@@H](N)CCCNC(=N)N)NC(=O)[C@H](CC(C)C)NC(=O)[C@@H](N)CCCNC(=N)N)C(N)=O [Z23] (I: H-RLK([Leu-Arg])RLKRLKK(Stearoyl)-NH2 / II: H-RLK([Leu-Arg])RLKRL / III: H-RLK([Leu-Arg])RL / IV: H-RLK([Leu-Arg])RL; amide I:6-IV:C, I:9-II:C, II:6-III:C)	83 ± 2%	–	95 ± 5%	46%	45%	39.6%	24.6%	1.66%	1.73%
CCCCCCCCCCCCCCCCCC(=O)NCCCC[C@@H](NC(=O)[C@@H](CCCCNC(=O)[C@@H](CC(C)C)NC(=O)[C@@H](CCCCN)NC(=O)[C@@H](CCCCNC(=O)[C@@H](CC(C)C)NC(=O)[C@@H](CCCCN)NC(=O)[C@@H](CCCCNC(=O)[C@@H](CC(C)C)NC(=O)[C@H](N)CCCCN)NC(=O)[C@@H](CC(C)C)NC(=O)[C@H](N)CCCCN)NC(=O)[C@@H](CC(C)C)NC(=O)[C@@H](CCCCN)NC(=O)[C@@H](CCCCNC(=O)[C@@H](CC(C)C)NC(=O)[C@H](N)CCCCN)NC(=O)[C@@H](CC(C)C)NC(=O)[C@H](N)CCCCN)NC(=O)[C@@H](CC(C)C)NC(=O)[C@@H](CCCCN)NC(=O)[C@@H](CCCCNC(=O)[C@@H](CC(C)C)NC(=O)[C@@H](CCCCN)NC(=O)[C@@H](CCCCNC(=O)[C@@H](CC(C)C)NC(=O)[C@H](N)CCCCN)NC(=O)[C@@H](CC(C)C)NC(=O)[C@H](N)CCCCN)NC(=O)[C@@H](CC(C)C)NC(=O)[C@@H](CCCCN)NC(=O)[C@@H](CCCCNC(=O)[C@@H](CC(C)C)NC(=O)[C@H](N)CCCCN)NC(=O)[C@@H](CC(C)C)NC(=O)[C@H](N)CCCCN)C(N)=O [Z26] (I: H-[dK][dL][dK]([dL-dK])[dK][dL][dK][dK][dL][dK][dK](Stearoyl)-NH2 / II: H-[dK][dL][dK]([dL-dK])[dK][dL][dK][dK][dL] / III: H-[dK][dL][dK]([dL-dK])[dK][dL] / IV: H-[dK][dL][dK]([dL-dK])[dK][dL]; amide I:6-IV:C, I:9-II:C, II:6-III:C)	91.3 ± 0.2%	–	91 ± 5%	51%	–	–	–	–	–
CCCCCCCCCCCCCCCCCC(=O)NCCCC[C@@H](NC(=O)[C@@H](CCCCNC(=O)[C@@H](CC(C)C)NC(=O)[C@@H](CCCNC(=N)N)NC(=O)[C@@H](CCCCNC(=O)[C@@H](CC(C)C)NC(=O)[C@@H](CCCNC(=N)N)NC(=O)[C@@H](CCCCNC(=O)[C@@H](CC(C)C)NC(=O)[C@H](N)CCCNC(=N)N)NC(=O)[C@@H](CC(C)C)NC(=O)[C@H](N)CCCNC(=N)N)NC(=O)[C@@H](CC(C)C)NC(=O)[C@@H](CCCNC(=N)N)NC(=O)[C@@H](CCCCNC(=O)[C@@H](CC(C)C)NC(=O)[C@H](N)CCCNC(=N)N)NC(=O)[C@@H](CC(C)C)NC(=O)[C@H](N)CCCNC(=N)N)NC(=O)[C@@H](CC(C)C)NC(=O)[C@@H](CCCNC(=N)N)NC(=O)[C@@H](CCCCNC(=O)[C@@H](CC(C)C)NC(=O)[C@@H](CCCNC(=N)N)NC(=O)[C@@H](CCCCNC(=O)[C@@H](CC(C)C)NC(=O)[C@H](N)CCCNC(=N)N)NC(=O)[C@@H](CC(C)C)NC(=O)[C@H](N)CCCNC(=N)N)NC(=O)[C@@H](CC(C)C)NC(=O)[C@@H](CCCNC(=N)N)NC(=O)[C@@H](CCCCNC(=O)[C@@H](CC(C)C)NC(=O)[C@H](N)CCCNC(=N)N)NC(=O)[C@@H](CC(C)C)NC(=O)[C@H](N)CCCNC(=N)N)C(N)=O [Z34] (I: H-[dR][dL][dK]([dL-dR])[dR][dL][dK][dR][dL][dK][dK](Stearoyl)-NH2 / II: H-[dR][dL][dK]([dL-dR])[dR][dL][dK][dR][dL] / III: H-[dR][dL][dK]([dL-dR])[dR][dL] / IV: H-[dR][dL][dK]([dL-dR])[dR][dL]; amide I:6-IV:C, I:9-II:C, II:6-III:C)	–	–	94 ± 6%	69%	100%	97.7%	95.4%	91.8%	101%
CCCCCCCCCCCCCCCCCC(=O)NCCCC[C@@H](NC(=O)[C@@H](CCCCNC(=O)[C@@H](CC(C)C)NC(=O)[C@@H](CC(C)C)NC(=O)[C@@H](CCCCNC(=O)[C@@H](CC(C)C)NC(=O)[C@@H](CC(C)C)NC(=O)[C@@H](CCCCNC(=O)[C@@H](CC(C)C)NC(=O)[C@H](N)CCCNC(=N)N)NC(=O)[C@@H](CC(C)C)NC(=O)[C@H](N)CCCNC(=N)N)NC(=O)[C@@H](CC(C)C)NC(=O)[C@@H](CC(C)C)NC(=O)[C@@H](CCCCNC(=O)[C@@H](CC(C)C)NC(=O)[C@H](N)CCCNC(=N)N)NC(=O)[C@@H](CC(C)C)NC(=O)[C@H](N)CCCNC(=N)N)NC(=O)[C@@H](CC(C)C)NC(=O)[C@@H](CC(C)C)NC(=O)[C@@H](CCCCNC(=O)[C@@H](CC(C)C)NC(=O)[C@@H](CC(C)C)NC(=O)[C@@H](CCCCNC(=O)[C@@H](CC(C)C)NC(=O)[C@H](N)CCCNC(=N)N)NC(=O)[C@@H](CC(C)C)NC(=O)[C@H](N)CCCNC(=N)N)NC(=O)[C@@H](CC(C)C)NC(=O)[C@@H](CC(C)C)NC(=O)[C@@H](CCCCNC(=O)[C@@H](CC(C)C)NC(=O)[C@H](N)CCCNC(=N)N)NC(=O)[C@@H](CC(C)C)NC(=O)[C@H](N)CCCNC(=N)N)C(N)=O [Z37] (I: H-[dR][dL][dK]([dL-dR])[dL][dL][dK][dL][dL][dK][dK](Stearoyl)-NH2 / II: H-[dR][dL][dK]([dL-dR])[dL][dL][dK][dL][dL] / III: H-[dR][dL][dK]([dL-dR])[dL][dL] / IV: H-[dR][dL][dK]([dL-dR])[dL][dL]; amide I:6-IV:C, I:9-II:C, II:6-III:C)	103 ± 1%	–	95 ± 5%	–	–	–	–	–	–
